# Assays:
# HSV-2 333 (DHPG)' = assay: Inhibition of viral yield, drug-resistant HSV-2 333(DHPG)'; conditions: Human alphaherpesvirus 2, HeLa, read-out: ID90
# HSV-1 KOS (PFA)' = assay: Inhibition of viral yield, drug-resistant HSV-1 KOS(PFA)'; conditions: Human alphaherpesvirus 1, HeLa, read-out: ID90
# Method: (§13) These compounds tested were the nucleoside analogs acyclovir (ACV), ganciclovir (DHPG), phosphonoformate (PFA), and phosphomethoxyethyladenine (PMEA). Inhibition of viral yield was determined, as above, by infecting Hela cells in the presence of wild type or drug-resistant strains of HSV-1 or HSV-2, and serial dilutions of a selected anti-viral compound, and infecting Vero cells with serial dilutions of the Hela cell lysate, as above.
# (§14) The KOS (HSV-1) and 333 (HSV-2) are wild type viruses; the KOS(PMEA)' and KOS(PFA)' are drug-resistant HSV-1 strains having a DNA polymerase mutation. The 333(DHPG) strain is a drug-resistantHSV-2 strain having a thymidine kinase mutation.
# (§15) The following strains of HSV-1 and HSV-2 virus were used: KOS, a wild type HSV-1 virus; KOS (PMEA) and KOS (PFA), both drug-resistant HSV-1 viruses having a DNA polymerase mutation; 333, a wild type HSV-2 HSV-2 virus, and 333 (DHPG), a drug-resistant HSV-2 virus having a thymidine kinase mutation.
# (§16) After growth at 37° C. for 24 hours in 2 ml of RPMI-1640 containing 2% FCS and penicillin and streptomycin (P/S), the cells were frozen at -70° C. until the time for titration. The cells were freeze/thawed 3 times to release virus from the cells, serially diluted 10 fold, and the serial dilutions were added to Vero cells in culture. After 2 hours incubation at 37° C. the virus was removed and 0.5 ml methycellulose (4K cps) in RPMI-1640 and 2% FCS+P/S was added. Two days later, the medium was removed. The cells were stained in 0.8% crystal violet in 50% ethanol. The plaques formed were counted and the titer was calculated from the fold of dilutions. From the drug dose response, the concentration of each drug required to effect a 90% inhibition of virus yield, the IC90 concentration was determined.
# HSV-1 KOS = assay: Inhibition of viral yield, wild type HSV-1 KOS; conditions: Human alphaherpesvirus 1, HeLa, read-out: ID90
# Method: as §13, §14, §15, §16
# HSV-2 333 = assay: Inhibition of viral yield, wild type HSV-2 333; conditions: Human alphaherpesvirus 2, HeLa, read-out: ID90
# Method: as §13, §14, §15, §16
# HSV-1 or HSV-2 = assay: Inhibition of HSV cytopathic effect (CPE) in Vero cells; conditions: 10-20 μg/ml
# Method: In the method reported in Example 5, Vero cells were infected with HSV-1 or HSV-2 and allowed to grow in culture until cytopathic effects were clearly visible. In the absence of infection, the cells form an even monolayer of fibro-blastlike cells. With HSV infection, a cytopathic effect characterized by round cells in suspension is clearly evident after 24 hours, followed by clumping and lysis of infected cells after 24-72 hours.
# In the drug inhibition study reported in Example 5, cells were exposed to HSV-1 or HSV-2 virus and, at the same time, to a selected aryl macrocyclic compound, at a final drug concentration of 10 μg/ml. Twenty-four hours later the cells were examined for cytopathic effect.
# Vero cells were maintained in RPMI-1640 medium supplemented with 5% fetal calf serum, 100 Units of penicillin per ml and 100 μg of streptomycin per ml at 37° C. in a humidified incubator containing 7% CO2. The HSV strains HSV-1 (Kos-1) and HSV-2 (333) were used.
# 1×10^5 Vero cells were plated in each well of a 96 well microtitre plate in 0.2 ml RPMI-1640 medium containing 5% FCS and 0.1% methyl cellulose (15 cps). After overnight incubation, and cell doubling, the medium was aspirated and replaced with 100 .1 of the same medium containing 2% FCS, and 50.1 control or drug solution to a final drug concentration of 10 μg/ml and 50 μl virus, containing about 3 PFU/cell, i.e., 6 x 10^s PFU/well, of HSV-1 or HSV-2.
# The cells were cultured for 24 hours at 37° C. at which time cytopathic effects are clearly visible. In the absence of viral infection, the cells form an even monolayer of fibroblast cells. With viral infection, the cells form a suspension of round cells, followed by cell clumping, whose appearance is easily distinguishable from normal fibroblast cells. If no detectable cytopathic effect was produced, the test was repeated with 10 μg/ml. A parallel set of cells without virus inoculation were done as a control for cytotoxicity to Vero cells.
# HIV-HXB = assay: Inhibition of syncytia formation, HIV-HXB (HTLV-IIIB); conditions: Human immunodeficiency virus 1, 18 h, read-out: HIV-HXB ED100, complete inhibition of syncytia formation
# HSV-2 = assay: Plaque reduction assay, HSV-2, Vero cells; type: cell-based, HSV-2 (333); conditions: Human alphaherpesvirus 2, Vero
# Method: (§1) used in Table 3 were further tested for activity against HSV infection in
# (§2) a plaque reduction assay, as detailed in Example 6. Here Vero cells, after
# (§3) overnight incubation, were exposed to serial dilutions of KY compound,
# (§4) from 0.625-10 μg/ml, and HSV-1 or HSV-2 virus for two hours. After
# (§5) washing to remove drug and extracellular virus, the cells were further
# (§6) incubated for 2 days, then stained and counted for plaque formation.
# (§7) Percent inhibition was determined by dividing plaques produced by total
# (§8) number of plaques in infected, untreated controls. From the concentration
# (§9) effect curve of plaque inhibition (expressed as percent of control), the
# (§10) concentration of compound required to produce 50% plaque reduction,
# (§11) IC50, was determined. The IC50 values for infection by HSV-1 and
# (§12) HSV-2 infection is given in the right-hand columns in Table 3. With
# RSV = assay: Inhibition of RSV cytopathic effect in HEp2 cells; type: cell-based; conditions: human respiratory syncytial virus, HEp-2; HEp2 cells, cytopathic effect; read-out: ED50 RSV
# HSV-1 = assay: Plaque reduction assay, HSV-1, Vero cells; type: cell-based, HSV-1 (Kos-1); conditions: Human alphaherpesvirus 1, Vero, plaque reduction, Vero cells
# Method: as §1, §2, §3, §4, §5, §6, §7, §8, §9, §10, §11, §12
# Influenza A (Taiwan) = assay: Inhibition of influenza A cytopathic effect (clumping) in MDCK cells; type: cell-based, Influenza A virus (A/Taiwan strain); conditions: Influenza A virus, 24 h, 50% reduction in percent clumped cells, read-out: ED50 Influenza A (Taiwan)
# Method: With virus infection, a cytopathic effect characterized by cell clumping is observed. For each compound tested, drug concentrations of 0.1, 1, 10, 25, and 100 μg/ml were added to cultured cells at the time of virus infection, as detailed in Examples 9 and 11. […] The inhibition of clumping was plotted as a function of drug concentration, to determine the dose effective to produce a 50% reduction in the percent clumped cells, measured with respect to control (no drug treatment).
# Assays to assess the antiviral activity of KY- and Y-compounds in tissue culture were performed in 96-well flat-bottom tissue culture plates (Falcon 307), using conditions similar to those used in the cytotoxicity assays described above. In these assays, compound was tested in quadruplicate by serially diluting the compound in 2% FCS-MEM using serial two-fold dilutions (0.05 ml/well). A 0.05 ml volume of the appropriate virus containing approximately 100 median tissue culture infectious doses (TCID50) was then added to all wells except those set aside as antiviral and tissue control wells. Next, approximately 3×10^3 HEp2 cells (0.1 ml) were added to each well. Control wells containing antiviral and no virus (antiviral control), containing virus but no antiviral (virus control), or containing medium without virus or antiviral (tissue control), were included in each test. The challenge virus was then back titrated. All assay plates were incubated at 35° C. for 5 to 7 days in a 5% CO2 incubator.
# The anti-influenza A activity of KY compounds was evaluated as described in Example 9, except that MDCK cells (kidney cell line) was used for infection in vitro by influenza virus (strain A/Taiwan).
# HIV-RF-II = assay: Inhibition of syncytia formation, HIV-RF-II; conditions: Human immunodeficiency virus 1, 18 h, read-out: HIV-RF-II ED100, complete inhibition of syncytia formation
# Method: Briefly, cells chronically infected with HTLV-IIIB or RF-II HIV strains were incubated in the presence of serial dilutions of the selected KY compound, then further cocultured with indicator cells. The extent of syncytia formation was scored under phase microscopy.
# Representative calix(n)arene compounds from Table 2 were tested for inhibition of cytopathic effects in cells infected with one of two HTLV-III strains, HTLV-IIIB and RF-II strains, as described in Example 12, and in the subsection above.
# Human CD4^+ indicator cells (VB) and chronically infected H9 cells were maintained in RPMI-1640 medium supplemented with 5% fetal calf serum, 100 Units of penicillin per ml and 100 μg of streptomycin per ml at 37° C. in a humidified incubator containing 7% CO2.
# For the fusion assay, serial dilutions between 1:2 and 1:2^8 of a selected KY compound, 1 mg/ml in PBS were made in a 96 well round bottom plate. The diluted KY compound was transferred to a 96 well flat-bottom plate. To each well was added 25 μg chronically infected H9 cells (at 2×10^6, cells/ml), or cells chronically infected with RF-II strain HIV, followed by incubation at 37° C. for 45 minutes. To each well was then added 25 μl VB cells (about 5×10^4 cells), and the cells and virus isolates were cocultured for 18 hours in a humid 5% CO2 atmosphere.
# [1] = tested on: panel of human cell lines; assay: Cytotoxicity in proliferating human cell lines; type: cell-based; conditions: 72 h; panel of human cell lines, 3 days; read-out: IC50 drug concentration (50% cell death)
# Method: In addition, a large number of representative aryl macrocyclic compounds (including those shown in Tables 1 and 2) were examined for toxicity in cell culture, using a panel of human cell lines, as detailed in Example 4. Briefly, the selected KY- or Y- compound was added to cell cultures at a final concentration of 5, 10, 25, 50, or 100 μg/ml. Three days later the cells were washed to remove drug, and stained with a vital stain, to determine the percentage of dead cells in each culture. The IC50 drug concentration, i.e., value concentration of drug which produced 50% cell death, was 50 μg/ml for KY-143, KY-151, and KY-163, and 100 μg/ml or greater for all of the other KY compounds tested. For KY-1, which has a molecular weight of 1404 daltons, a drug concentration of 100 μg/ml is equivalent to about […].
# A panel of human cell lines was used to check the toxicity of the drugs, including: KB (nasopharyngeal carcinoma), HeLaS3 (cervical epithelial carcinoma), PLC (hepatocarcinoma), HepG2 (human hepatocarcinoma) HepG2T14 (hepatocarcinoma transfected with HBV), WI38 (normal human lung fibroblast), BT549 (breast cancer), SW480 ([…]), and A549 (lung cancer).
# Three days later, the medium was removed and the cells were stained with Commassie Blue in 40% methanol and 7% acetic acid. The results are discussed in Section II above.
smiles,measurement,setting,value
"Nc1nc(O)c2ncn(COC(CO)CO)c2n1 [DHPG, ganciclovir]",IC90,HSV-2 333 (DHPG)',215000 nM
same,IC90,HSV-1 KOS (PFA)',1000 nM
same,IC90,HSV-1 KOS,2000 nM
same,IC90,HSV-2 333,2000 nM
O=S(=O)(O)c1cc2cc(S(=O)(=O)O)c3c(O)c2c(O)c1C(C(O)CO)c1c(S(=O)(=O)O)cc2cc(S(=O)(=O)O)c(c(O)c2c1O)C(C(O)CO)c1c(S(=O)(=O)O)cc2cc(S(=O)(=O)O)c(c(O)c2c1O)C(C(O)CO)c1c(S(=O)(=O)O)cc2cc(S(=O)(=O)O)c(c(O)c2c1O)C3C(O)CO (stereo not shown) [KY-48],"protection from CPE, in words",HSV-1 or HSV-2,low activity
same,EC100,HIV-HXB,250 µg/mL
C=CC1c2c(S(=O)(=O)O)cc3cc(S(=O)(=O)O)c(c(O)c3c2O)C(C=C)c2c(S(=O)(=O)O)cc3cc(S(=O)(=O)O)c(c(O)c3c2O)C(C=C)c2c(S(=O)(=O)O)cc3cc(S(=O)(=O)O)c(c(O)c3c2O)C(C=C)c2c(S(=O)(=O)O)cc3cc(S(=O)(=O)O)c1c(O)c3c2O (stereo not shown) [KY-97],IC50,HSV-2,> 10 µg/mL
same,EC50,RSV,0.5 µg/mL
same,IC50,HSV-1,> 10 µg/mL
same,EC100,HIV-HXB,32 µg/mL
same,EC50,Influenza A (Taiwan),5 µg/mL
CC(=O)C1c2c(S(=O)(=O)O)cc3cc(S(=O)(=O)O)c(c(O)c3c2O)C(C(C)=O)c2c(S(=O)(=O)O)cc3cc(S(=O)(=O)O)c(c(O)c3c2O)C(C(C)=O)c2c(S(=O)(=O)O)cc3cc(S(=O)(=O)O)c(c(O)c3c2O)C(C(C)=O)c2c(S(=O)(=O)O)cc3cc(S(=O)(=O)O)c1c(O)c3c2O (stereo not shown) [KY-110],IC50,HSV-2,> 10 µg/mL
same,EC50,RSV,4 µg/mL
same,IC50,HSV-1,> 10 µg/mL
same,"protection from CPE, in words",HSV-1 or HSV-2,low activity
same,EC100,HIV-HXB,63 µg/mL
same,EC50,Influenza A (Taiwan),> 250 µg/mL
O=S(O)c1cc2cc(S(=O)O)c3c(O)c2c(O)c1Cc1c(S(=O)O)cc2cc(S(=O)O)c(c(O)c2c1O)Cc1c(S(=O)O)cc2cc(S(=O)O)c(c(O)c2c1O)Cc1c(S(=O)O)cc2cc(S(=O)O)c(c(O)c2c1O)C3 [KY-123],EC100,HIV-RF-II,16 µg/mL
same,IC50,HSV-2,1.5 µg/mL
same,EC50,RSV,1 µg/mL
same,IC50,HSV-1,1.5 µg/mL
same,EC100,HIV-HXB,16 µg/mL
same,EC50,Influenza A (Taiwan),31.3 µg/mL
O=S(=O)(O)c1c2c(O)c3c(O)c(c(S(=O)(=O)O)c(O)c3c1O)Cc1c(S(=O)(=O)O)c(O)c3c(O)c(S(=O)(=O)O)c(c(O)c3c1O)Cc1c(S(=O)(=O)O)c(O)c3c(O)c(S(=O)(=O)O)c(c(O)c3c1O)Cc1c(S(=O)(=O)O)c(O)c3c(O)c(S(=O)(=O)O)c(c(O)c3c1O)C2 [KY-143],EC100,HIV-RF-II,125 µg/mL
same,IC50,[1],50 µg/mL
same,IC50,HSV-2,> 10 µg/mL
same,IC50,HSV-1,> 10 µg/mL
same,"protection from CPE, in words",HSV-1 or HSV-2,low activity
same,EC100,HIV-HXB,250 µg/mL
CNS(=O)(=O)c1cc2cc(S(=O)(=O)NC)c3c(O)c2c(O)c1Cc1c(S(=O)(=O)NC)cc2cc(S(=O)(=O)NC)c(c(O)c2c1O)Cc1c(S(=O)(=O)NC)cc2cc(S(=O)(=O)NC)c(c(O)c2c1O)Cc1c(S(=O)(=O)NC)cc2cc(S(=O)(=O)NC)c(c(O)c2c1O)C3 [KY-147],EC100,HIV-RF-II,250 µg/mL
same,IC50,HSV-2,> 10 µg/mL
same,IC50,HSV-1,> 10 µg/mL
same,"protection from CPE, in words",HSV-1 or HSV-2,low activity
same,EC100,HIV-HXB,250 µg/mL
